Results published in patent US5968751A, “Method for detecting the presence of protein C antibody in a fluid sample” (The Scripps Research Institute, priority 1997, dated 1999).
Like-named read-outs stand apart in the source and are kept apart here. No end group written: not given here.

Experiments:
Assay type in all cases: biochemical
Factor Xa = target: T1, Factor Xa (Homo sapiens, UniProt P00742); test: Factor Xa clotting activity in NHP without added APC (Factor Xa-1 Stage clotting assay)
T1 construct: purchased Enzyme Research Laboratories, Southbend, Ind

tenase = target: T2, tenase (Homo sapiens, UniProt P00740); test: tenase assay (Factor Xa generation); conditions: read-out: IC50 inhibition of tenase
T2 construct: 30 μl of 3.5 nM factor IXaβ (Enzyme Research Labs) in BBS+OV; purchased Enzyme Research Labs (factor IXaβ, factor X); Armour Pharmaceutical, Chicago (Monoclate P)
Experimental: The tenase assay was conducted both in the presence and absence of Factor VIIIa. The procedure for the tenase assay varied depending on this variable and is described hereafter.
Peptides prepared in Example 1 were dissolved in water and then 1/2 into 50 mM Barbital, 200 mM NaCl, 0.2% NaN3, 2.5 mg/ml Ovalbumin (5 times recrystallized, salt free, from American Biorganics Inc., New York, pH=7.5). […]. Before using them, they were made 250 μM into BBs +1.25 mg/ml Ovalbumin (BBS+OV) containing CaCl2 for a final concentration of 25 mM and they were preincubated for 10 minutes at 37° C. These vesicles were allowed to cool to room temperature before being added to the reaction mixture. Monoclate P (Armour Pharmaceutical, Chicago) 114 U VIII:C/ml frozen in water was thawed at 37° C. and immediately diluted to 6 U/ml into BBS+OV (22° C.). A 0.35 nM thrombin-containing solution (Enzyme Research Labs., Southbend, Ind.) was prepared by admixing 1/100 volume of stock solution containing 35 nM in BBS+OV, and maintained for 3 minutes at 22° C. Thrombin activity was stopped by adding 1/100 volume of a 50 μM stock solution in 1 mM HCl of Phe-Pro-Arg-Chloromethyl ketone (PPACK, Bachem Feinchmikallen AG, Bubendorf, Switzerland). […] The thrombin treated Monoclate P was used immediately in the Xa generation assay.
For the assay, 30 μl of peptide dilutions or BBS+OV as 0 μM peptide control were admixed with 30 μl of thrombin-treated Monoclate P and maintained 10 minutes at 22° C. Then 30 μl of Cacl2 -phospholipid vesicles prepared as described above were added, followed immediately by 30 μl of 3.5 nM factor IXaβ (Enzyme Research Labs) in BBS+OV. The reaction was started by adding 30 μl of 250 nM factor X (Enzyme Research Labs) in BBS+OV. All reagents were at 22° C.
Aliquots of 20 μl were drawn at time 0, 1, 2, 3, 4 and 5 minutes of maintenance at 22° C. and diluted to 160 μl of 50 mM TrisHCl, 100 mM NaCl, 5 mM EDTA and 0.1 mg/ml Ovalbumin pH=8.0. Once all aliquots were drawn, 20 μl 2.0 mM S-2765 were added and the increase of A 405 at 22° C. was recorded in a model EL 312 Microplate Biokinetics Reader (BIO-TEK Instruments Inc., Vermont).
No amidolytic activity was observed when factor X was omitted from the reaction mixture.
Phospholipid vesicles prepared as described above were admixed with BBS+OV containing CaCl2 to obtain final concentrations of 312.5 μM vesicles and 20 mM CaCl2, and were premaintained for 10 minutes at 37° C. Before admixing, all the reagents were maintained for 5 minutes in a 37° C. waterbath.
For the assay, 100 μl of the phospholipid CaCl2 mix were admixed with 100 μl of peptide dilutions in BBS+OV or BBS+OV (as 0 μM peptide control) and 25 μl of 100 nM factor IXaβ in BBS+OV. The reaction was started immediately by adding 25 μl of 10 μM factor X in BBS+OV. All experiments were done at 37° C.
Aliquots of 40 μl were drawn at time 0, 5, 10, 15, 20 and 25 minutes of incubation at 37° C. and diluted to 140 μl 50 mM TrisHCl, 100 mM NaCl, 10 mM EDTA, and 1.25 mg/ml Ovalbumin pH=8.0. Once all aliquots were drawn, 20 μl 20.0 mM S-2765 were added and the increase of A 405 at 22° C. was recorded in a model EL 312 Microplate Biokinetics Reader.

Factor IXa = Factor IXa (Homo sapiens, UniProt P00740); test: Factor IXa-1 Stage clotting assay
Experimental: The Factor IXa-1 Stage assay was conducted essentially as the Factor Xa-1 Stage clotting assay above, except that Factor Xa was omitted, and Factor IXa was added in its place. In that assay, the IC50 for peptides X404-418, X415-429, IX395-409, IX400-414, IX315-330, and IX321-335 were 50, 30, 25, 50, 30 and 30.

APC = APC (Homo sapiens, UniProt P04070); test: APTT and Xa-1-stage coagulation assays, inhibition of APC anticoagulant activity; set-up: Protein C consists of a 155 amino acid residue light chain and a 262 amino acid residue heavy chain; from tissue; host or cells: human plasma factor IX concentrate; conditions: read-out: IC90 ** μM (concentration of peptide that inhibits 90% of APC anticoagulant activity)
Experimental: The effect of the synthetic peptides on APC anticoagulant activity were determined using the APTT assay in the presence of either normal citrate anticoagulated plasma (NHP) or protein S depleted plasma (PSDP). The assays were performed essentially as described. See Marlar et al., Blood, 59:1067-1072 […]; Suzuki et al., J. Biol. Chem., 258:163-168 (1983); Gruber et al., Blood, 73:639-642 (1989); Ohlin et al., Biochem., 29:644-651 (1990). NHP was purchased from George King Bio-Medical, Inc. (Overland Park, Kans.). PSDP was prepared from a normal human citrate-anticoagulated plasma pool from ten healthy donors. Protein S was immunodepleted from the NHP by immunoaffinity chromatography of NHP over an anti-protein S antibody column to form PSDP. The anti-protein S antibody column was prepared by coupling 100 mg of a monoclonal, high-affinity, calcium-independent anti-PS antibody, designated S7, to 30 ml of CNBr-activated Sepharose 4B (Pharmacia) as described in Example 2cl).
For the APTT assay, APC was prepared as described in Example 2c2). […] The concentration of the APC used in the assay was initially optimized with respect to the sensitivity of the assay towards APC-induced prolongation of clotting time compared to clotting time without APC.
Once the optimal concentration of APC was determined, peptides from the heavy and light chains of PC and control scrambled peptides listed below in Example 5a2) in Tables 6 and 7 were then separately admixed for a final concentration of 500 μM with 10 nM APC in 100 μl of TBS-BSA at pH 7.4 to form peptide-APC admixtures. Peptides were prepared as described in Example 1. The resulting admixtures were maintained for ten minutes at 37° C. Separate aliquots of peptides maintained under the same conditions in the absence of APC served as controls for the inhibitory effect of synthetic peptides on APC anticoagulant activity. After the maintenance period, 100 μl of NHP and 100 μl APTT-reagent Thrombosil (Ortho Diagnostics, Raritan, N.J.) were admixed into each peptide admixture and maintained for 200 seconds at 37° C. to form a pre-coagulation admixture. In some experiments, PSDP was used in the place of NHP to determine the effect of Protein S on the assay system. Coagulation was then initiated by the admixture of 100 μl of 30 mM CaCl2 in TBS prewarmed to 37° C. to each of the pre-coagulation admixtures. The time for clot formation was measured by an Electra 700 Automatic Coagulation Timer (Medical Laboratory Automation, Inc., Mount Vernon, N.Y.). Each peptide's effect was determined in duplicate.
For peptides at a concentration of 500 μM that inhibited at least 50% of APC anticoagulant activity, analysis of dose-response was subsequently conducted.
For testing the inhibition of the synthetic peptides on APC activity described above, Xa-1-stage coagulation assays were also performed as described. See Seegers et al., Thrombosis Res., 13:233-243 (1978); Marlar et al., supra; and Walker et al., J. Biol. Chem., 265:1484-1489 (1990).

T1 sequence (P00742 41-179 limits assumed): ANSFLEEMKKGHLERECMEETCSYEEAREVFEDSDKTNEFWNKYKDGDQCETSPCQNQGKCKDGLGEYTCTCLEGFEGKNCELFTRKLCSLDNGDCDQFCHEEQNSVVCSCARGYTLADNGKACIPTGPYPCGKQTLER
T1 sequence (P00742 235-488 limits assumed): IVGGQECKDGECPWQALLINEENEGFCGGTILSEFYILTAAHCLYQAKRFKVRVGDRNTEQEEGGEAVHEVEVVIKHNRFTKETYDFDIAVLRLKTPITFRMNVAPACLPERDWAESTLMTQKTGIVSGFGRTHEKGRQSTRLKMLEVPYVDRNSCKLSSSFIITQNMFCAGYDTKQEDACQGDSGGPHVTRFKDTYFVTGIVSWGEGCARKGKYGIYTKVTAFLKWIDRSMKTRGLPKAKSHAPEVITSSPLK
Chain of Factor IXa (P00740 47-191 limits assumed): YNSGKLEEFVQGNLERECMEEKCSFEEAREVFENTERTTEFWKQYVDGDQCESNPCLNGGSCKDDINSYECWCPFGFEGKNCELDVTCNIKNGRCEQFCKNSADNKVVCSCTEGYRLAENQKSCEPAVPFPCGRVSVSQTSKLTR
Chain of Factor IXa (P00740 227-461 limits assumed): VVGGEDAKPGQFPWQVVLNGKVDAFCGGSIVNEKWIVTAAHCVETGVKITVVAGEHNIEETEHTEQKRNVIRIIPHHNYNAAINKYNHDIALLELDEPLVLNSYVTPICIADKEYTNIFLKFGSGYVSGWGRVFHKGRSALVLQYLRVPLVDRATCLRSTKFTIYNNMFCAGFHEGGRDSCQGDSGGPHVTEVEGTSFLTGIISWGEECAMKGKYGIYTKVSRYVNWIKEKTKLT
T2 sequence (P00740 47-191): as the sequence (P00740 47-191 limits assumed) above
T2 sequence (P00740 227-461): as the sequence (P00740 227-461 limits assumed) above
Chain of APC (P04070 43-197 limits assumed): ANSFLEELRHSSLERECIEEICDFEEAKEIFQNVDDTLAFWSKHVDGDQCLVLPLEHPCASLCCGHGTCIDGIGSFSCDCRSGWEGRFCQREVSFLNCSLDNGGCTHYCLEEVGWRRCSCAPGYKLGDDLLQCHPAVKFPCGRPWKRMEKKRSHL
Chain of APC (P04070 212-450 limits assumed): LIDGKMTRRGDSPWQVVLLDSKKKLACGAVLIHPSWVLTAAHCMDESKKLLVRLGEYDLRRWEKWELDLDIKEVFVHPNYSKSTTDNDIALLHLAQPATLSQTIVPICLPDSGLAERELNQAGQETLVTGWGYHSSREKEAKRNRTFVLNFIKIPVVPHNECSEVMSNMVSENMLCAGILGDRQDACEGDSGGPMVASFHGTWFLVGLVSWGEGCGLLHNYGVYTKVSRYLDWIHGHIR

Substance: ARKGKYGIYTKVTAF-NH2 [X404-418, Ala-Arg-Lys-Gly-Lys-Tyr-Gly-Ile-Tyr-Thr-Lys-Val-Thr-Ala-Phe]
- IC50 (Factor Xa): 50 µM
- IC50 (tenase; presence of Factor VIIIa): ~150 µM
- IC50 (Factor IXa): 50 µM

Substance: EKGRQSTRLKMLEVPY-NH2 [X329-344, Glu-Lys-Gly-Arg-Gln-Ser-Thr-Arg-Leu-Lys-Met-Leu-Glu-Val-Pro-Tyr]
- IC50 (Factor Xa): 500 µM

Substance: GKGQPSVLQVVNLPI-NH2 [PT473-487, Gly-Lys-Gly-Gln-Pro-Ser-Val-Leu-Gln-Val-Val-Asn-Leu-Pro-Ile]
- IC50 (Factor Xa): 25 µM

Substance: HKGRSALVLQYLRVPL-NH2 [IX315-330, His-Lys-Gly-Arg-Ser-Ala-Leu-Val-Leu-Gln-Tyr-Leu-Arg-Val-Pro-Leu]
- IC50 (tenase; absence of VIIIa): 40 to 60 µM
- IC50 (tenase; presence of Factor VIIIa): ~2 µM
- IC50 (Factor IXa): 30 µM

Substance: KVSRYVNWIKEKTKL-NH2 [IX400-414, Lys-Val-Ser-Arg-Tyr-Val-Asn-Trp-Ile-Lys-Glu-Lys-Thr-Lys-Leu]
- IC50 (tenase; presence of Factor VIIIa): 100 to 140 µM
- IC50 (Factor IXa): 50 µM

Substance: LVLQYLRVPLVDRAT-NH2 [IX321-335, Leu-Val-Leu-Gln-Tyr-Leu-Arg-Val-Pro-Leu-Val-Asp-Arg-Ala-Thr]
- IC50 (tenase; presence of Factor VIIIa): 100 to 140 µM
- IC50 (Factor IXa): 30 µM

Substance: NLKETWTANVGKGQP [PT463-478]
- IC50 (Factor Xa): > 500 µM

Substance: QVVNLPIVERPVSKD-NH2 [PT481-495, Gln-Val-Val-Asn-Leu-Pro-Ile-Val-Glu-Arg-Pro-Val-Ser-Lys-Asp]
- IC50 (Factor Xa): > 500 µM

Substance: VLNFIKIPVVPHNEC-NH2 [PC317-331]
- IC90 (APC): 500 µM

Substance: VTAFLKWIDRSMKTR-NH2 [X415-429, Val-Thr-Ala-Phe-Leu-Lys-Trp-Ile-Asp-Arg-Ser-Met-Lys-Thr-Arg]
- IC50 (Factor Xa): 115 µM
- IC50 (tenase; presence of Factor VIIIa): ~45 µM
- IC50 (Factor IXa): 30 µM

Substance: YGFYTHVFRLKKWIQ-NH2 [PT557-571, Tyr-Gly-Phe-Tyr-Thr-His-Val-Phe-Arg-Leu-Lys-Lys-Trp-Ile-Gln]
- IC50 (Factor Xa): 50 µM

Substance: YGIYTKVSRYVNWIK-NH2 [IX395-409, Tyr-Gly-Ile-Tyr-Thr-Lys-Val-Ser-Arg-Tyr-Val-Asn-Trp-Ile-Lys]
- IC50 (tenase; absence of VIIIa): 40 to 60 µM
- IC50 (tenase; presence of Factor VIIIa): ~6 µM
- IC50 (Factor IXa): 25 µM
